From publication PMC11820409, “Synthesis and Evaluation of the AhR Activity of Indolo[3,2-b]carbazole Derivatives” (Molecules, 2025)
Read-outs that look alike come from different tables or passages of the source.

What was measured:
AhR [1] = molecular target: T1, AhR (Rattus norvegicus, UniProt P41738); experiment: AhR induction, luciferase reporter gene (CALUX), rat H4L7.5c2 cells; assay type: cell-based; conditions: 6 h incubation
T1 construct: cells that were stably transfected with a luciferase reporter gene; endogenous in cells; host or cells: H4L7.5c2 (rat)
T1 sequence (P41738 10-853): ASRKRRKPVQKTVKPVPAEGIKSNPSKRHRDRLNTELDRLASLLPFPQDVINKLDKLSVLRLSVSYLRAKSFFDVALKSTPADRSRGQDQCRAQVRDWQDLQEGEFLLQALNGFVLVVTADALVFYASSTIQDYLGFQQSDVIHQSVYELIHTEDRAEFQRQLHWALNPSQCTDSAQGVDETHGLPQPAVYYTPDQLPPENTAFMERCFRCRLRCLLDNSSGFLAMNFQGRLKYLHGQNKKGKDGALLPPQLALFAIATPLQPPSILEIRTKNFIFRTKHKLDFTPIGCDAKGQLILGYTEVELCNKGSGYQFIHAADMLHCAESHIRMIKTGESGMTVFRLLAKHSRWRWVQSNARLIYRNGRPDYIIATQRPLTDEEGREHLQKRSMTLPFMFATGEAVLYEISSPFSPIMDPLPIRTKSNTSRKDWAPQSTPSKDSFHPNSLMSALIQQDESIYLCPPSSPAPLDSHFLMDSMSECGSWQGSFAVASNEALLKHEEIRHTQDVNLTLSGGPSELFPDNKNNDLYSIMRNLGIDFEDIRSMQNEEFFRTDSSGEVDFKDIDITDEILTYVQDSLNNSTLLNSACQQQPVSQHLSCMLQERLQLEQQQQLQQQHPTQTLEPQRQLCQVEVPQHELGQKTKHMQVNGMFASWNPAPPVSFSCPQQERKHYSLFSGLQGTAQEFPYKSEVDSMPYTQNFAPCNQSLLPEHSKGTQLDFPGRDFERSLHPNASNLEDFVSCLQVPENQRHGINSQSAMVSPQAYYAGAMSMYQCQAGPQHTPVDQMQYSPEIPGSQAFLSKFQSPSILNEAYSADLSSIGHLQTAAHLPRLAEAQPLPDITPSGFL
Procedure: (§1) The activity on AhR of the synthesized compounds was evaluated in cells that were stably transfected with a luciferase reporter gene. They were tested in four different cell lines, namely in human (HG2L7.5c1), mouse (H1L7.5c3), rat (H4L7.5c2) and guinea pig (G16L7.5c1) cells.
(§2) The synthesized alkaloids were evaluated for their ability to induce AhR in four different cell lines, more specifically in human (HG2L7.5c1), mouse (H1L7.5c3), rat (H4L7.5c2) and guinea pig (G16L7.5c1) cells that were stably transfected with a luciferase reporter gene. The results were calculated in EC50 (M) and compared to those of dioxin (TCDD), the principal ligand of the receptor. The protocol followed is described below.
(§3) Human, mouse, rat and guinea pig cells were grown in 100 mm cell culture plates (Corning Glass Works; Corning, NY, USA) using a sterile technique, maintained in alpha-minimum essential media (α-MEM) supplemented with 10% (v/v) fetal bovine serum (FBS) and G418 (1 mg/mL), and incubated at >80% humidity and 37◦C. For the CALUX analysis, plates of stable cell clones (approximately 80–100% confluent) were trypsinized and resuspended in 20 mL α-MEM. An aliquot (100 μL) of the indicated cell suspension was added into sterile 96-well tissue culture plates (Corning), and the plates were incubated for 24 h prior to ligand exposure, allowing the cells to reach confluence. Prior to ligand addition, the wells were washed with 1 × phosphate-buffered saline (PBS), and then, cells were incubated with the indicated concentration of DMSO (10 μL/mL) or corresponding solutions of TCDD or tested compounds in DMSO for 6 h or 24 h at 37 °C. After incubation, the cells were washed twice with PBS, 100 μL of 1 × Lysis buffer (Promega; Madison, WI, USA) was added to each well, and the plate was placed on a plate shaker at room temperature until the cells were lysed (approximately 20 min). Luciferase activity was measured using an automated microplate luminometer (Anthos Lucy2, Anthos Labtec Instruments, Wals/Salzburg, Austria) in enhanced flash mode with the automatic injection of 50 μL of Promega-stabilized luciferase reagent. Examples of the induction curves of the tested compounds are available in the Supplementary Materials.

AhR [2] = molecular target: T2, AhR (Cavia porcellus, UniProt Q6J287); experiment: AhR induction, luciferase reporter gene (CALUX), guinea pig G16L7.5c1 cells; assay type: cell-based; conditions: 6 h incubation
T2 construct: cells that were stably transfected with a luciferase reporter gene; endogenous in cells; host or cells: G16L7.5c1 (guinea pig)
T2 sequence (Q6J287 1-846): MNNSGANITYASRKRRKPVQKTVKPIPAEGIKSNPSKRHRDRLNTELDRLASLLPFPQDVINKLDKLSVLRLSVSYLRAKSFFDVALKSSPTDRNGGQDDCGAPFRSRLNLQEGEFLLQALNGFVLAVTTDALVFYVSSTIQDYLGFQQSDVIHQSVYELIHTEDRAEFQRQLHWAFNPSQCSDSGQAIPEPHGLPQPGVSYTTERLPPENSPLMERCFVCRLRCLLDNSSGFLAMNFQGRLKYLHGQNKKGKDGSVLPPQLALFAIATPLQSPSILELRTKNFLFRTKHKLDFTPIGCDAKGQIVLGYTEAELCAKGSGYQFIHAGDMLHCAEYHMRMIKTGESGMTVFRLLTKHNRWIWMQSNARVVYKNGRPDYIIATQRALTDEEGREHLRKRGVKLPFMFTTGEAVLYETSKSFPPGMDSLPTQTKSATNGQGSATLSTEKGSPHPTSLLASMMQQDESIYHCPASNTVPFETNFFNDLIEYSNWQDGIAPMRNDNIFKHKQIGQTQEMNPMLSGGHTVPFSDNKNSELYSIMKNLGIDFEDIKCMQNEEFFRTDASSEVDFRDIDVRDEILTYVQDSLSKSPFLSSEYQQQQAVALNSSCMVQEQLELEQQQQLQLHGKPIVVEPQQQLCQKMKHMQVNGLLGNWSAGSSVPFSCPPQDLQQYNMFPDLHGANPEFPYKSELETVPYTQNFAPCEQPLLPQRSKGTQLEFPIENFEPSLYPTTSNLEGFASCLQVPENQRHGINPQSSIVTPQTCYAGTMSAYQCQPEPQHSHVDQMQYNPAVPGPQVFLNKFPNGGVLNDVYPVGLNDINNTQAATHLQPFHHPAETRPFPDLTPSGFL
Procedure: as §1, §2, §3

AhR [3] = molecular target: T3, AhR (Mus musculus, UniProt P30561); experiment: AhR induction, luciferase reporter gene (CALUX), mouse H1L7.5c3 cells; assay type: cell-based
T3 construct: cells that were stably transfected with a luciferase reporter gene; endogenous in cells; host or cells: H1L7.5c3 (mouse)
T3 sequence (P30561 10-805 limits assumed): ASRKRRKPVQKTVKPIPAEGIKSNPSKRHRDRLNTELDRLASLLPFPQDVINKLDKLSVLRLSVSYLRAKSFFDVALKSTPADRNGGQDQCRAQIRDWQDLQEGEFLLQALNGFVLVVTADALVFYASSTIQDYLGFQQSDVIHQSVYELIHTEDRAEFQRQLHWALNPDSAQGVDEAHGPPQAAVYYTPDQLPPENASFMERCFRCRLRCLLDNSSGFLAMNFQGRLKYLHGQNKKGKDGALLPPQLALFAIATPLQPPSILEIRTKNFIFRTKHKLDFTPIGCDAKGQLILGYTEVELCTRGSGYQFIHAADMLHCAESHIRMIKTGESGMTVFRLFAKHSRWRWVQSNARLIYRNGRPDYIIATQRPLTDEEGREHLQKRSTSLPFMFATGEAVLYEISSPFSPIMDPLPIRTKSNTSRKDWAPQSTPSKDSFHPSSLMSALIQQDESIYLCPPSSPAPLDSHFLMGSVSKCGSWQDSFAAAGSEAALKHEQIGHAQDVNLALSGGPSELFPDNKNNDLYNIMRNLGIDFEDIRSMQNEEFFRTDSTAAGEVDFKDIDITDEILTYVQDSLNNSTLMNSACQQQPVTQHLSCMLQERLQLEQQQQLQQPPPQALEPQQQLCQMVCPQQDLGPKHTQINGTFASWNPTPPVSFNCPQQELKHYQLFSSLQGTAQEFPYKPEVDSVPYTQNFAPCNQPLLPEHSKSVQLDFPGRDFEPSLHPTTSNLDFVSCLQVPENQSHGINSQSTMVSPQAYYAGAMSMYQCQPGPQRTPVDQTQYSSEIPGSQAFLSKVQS
T3 sequence (P11499 whole entry partner): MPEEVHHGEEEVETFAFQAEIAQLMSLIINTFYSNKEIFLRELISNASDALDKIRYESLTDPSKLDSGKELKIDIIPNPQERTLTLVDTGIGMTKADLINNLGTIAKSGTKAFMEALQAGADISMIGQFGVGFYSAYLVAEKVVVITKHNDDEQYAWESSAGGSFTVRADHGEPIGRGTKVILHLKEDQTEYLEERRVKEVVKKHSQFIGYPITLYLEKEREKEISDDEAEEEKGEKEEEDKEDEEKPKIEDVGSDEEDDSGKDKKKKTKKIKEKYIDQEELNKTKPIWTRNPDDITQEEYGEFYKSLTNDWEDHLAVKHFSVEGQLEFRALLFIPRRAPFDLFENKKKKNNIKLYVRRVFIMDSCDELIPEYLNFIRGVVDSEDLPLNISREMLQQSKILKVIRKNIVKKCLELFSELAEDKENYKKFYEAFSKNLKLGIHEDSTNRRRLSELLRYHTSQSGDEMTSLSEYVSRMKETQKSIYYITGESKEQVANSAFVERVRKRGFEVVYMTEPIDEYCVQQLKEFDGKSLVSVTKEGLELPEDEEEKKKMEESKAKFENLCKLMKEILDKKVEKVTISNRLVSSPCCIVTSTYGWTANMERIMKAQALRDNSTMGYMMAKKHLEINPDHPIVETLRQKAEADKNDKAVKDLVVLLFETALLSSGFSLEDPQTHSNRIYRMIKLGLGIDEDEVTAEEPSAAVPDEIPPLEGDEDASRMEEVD
T3 sequence (O08915 whole entry partner): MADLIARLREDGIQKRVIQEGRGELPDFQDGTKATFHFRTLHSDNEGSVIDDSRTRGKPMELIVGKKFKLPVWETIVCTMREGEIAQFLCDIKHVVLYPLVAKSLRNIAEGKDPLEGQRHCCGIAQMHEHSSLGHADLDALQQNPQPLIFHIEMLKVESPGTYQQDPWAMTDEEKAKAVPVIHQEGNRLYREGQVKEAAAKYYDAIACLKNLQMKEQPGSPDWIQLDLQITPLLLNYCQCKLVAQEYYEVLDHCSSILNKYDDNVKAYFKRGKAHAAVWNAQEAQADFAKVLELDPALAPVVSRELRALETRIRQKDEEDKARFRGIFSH
Procedure: as §1, §2, §3

AhR [4] = molecular target: T4, AhR (Homo sapiens, UniProt P35869); experiment: AhR induction, luciferase reporter gene (CALUX), human HG2L7.5c1 cells; assay type: cell-based; conditions: 6 h incubation
T4 construct: cells that were stably transfected with a luciferase reporter gene; endogenous in cells; host or cells: HG2L7.5c1 (human)
T4 sequence (P35869 11-848): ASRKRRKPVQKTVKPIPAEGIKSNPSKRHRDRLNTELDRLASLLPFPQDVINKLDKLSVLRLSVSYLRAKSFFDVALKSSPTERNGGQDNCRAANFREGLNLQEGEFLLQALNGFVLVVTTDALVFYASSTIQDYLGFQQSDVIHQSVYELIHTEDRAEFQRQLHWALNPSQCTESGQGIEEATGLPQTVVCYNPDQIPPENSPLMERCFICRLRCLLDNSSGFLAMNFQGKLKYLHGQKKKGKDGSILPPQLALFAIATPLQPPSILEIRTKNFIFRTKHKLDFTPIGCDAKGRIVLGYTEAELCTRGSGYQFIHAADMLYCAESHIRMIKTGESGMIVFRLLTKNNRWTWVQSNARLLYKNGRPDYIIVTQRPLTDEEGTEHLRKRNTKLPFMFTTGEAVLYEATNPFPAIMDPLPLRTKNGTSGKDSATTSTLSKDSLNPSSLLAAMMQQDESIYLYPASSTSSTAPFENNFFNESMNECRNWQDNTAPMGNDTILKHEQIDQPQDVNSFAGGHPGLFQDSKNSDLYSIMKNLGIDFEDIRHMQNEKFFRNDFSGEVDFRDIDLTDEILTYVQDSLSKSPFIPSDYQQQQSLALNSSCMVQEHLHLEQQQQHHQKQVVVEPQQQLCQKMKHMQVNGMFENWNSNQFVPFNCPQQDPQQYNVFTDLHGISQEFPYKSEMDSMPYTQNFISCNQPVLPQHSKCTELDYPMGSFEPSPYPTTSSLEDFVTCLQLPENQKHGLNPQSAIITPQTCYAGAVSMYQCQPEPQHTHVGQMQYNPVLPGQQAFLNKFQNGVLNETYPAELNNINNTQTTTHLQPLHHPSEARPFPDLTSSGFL
Procedure: The synthesized alkaloids were evaluated for their ability to induce AhR in four different cell lines, more specifically in human (HG2L7.5c1), mouse (H1L7.5c3), rat (H4L7.5c2) and guinea pig (G16L7.5c1) cells that were stably transfected with a luciferase reporter gene [41]. The results were calculated in EC50 (M) and compared to those of dioxin (TCDD), the principal ligand of the receptor.
Human, mouse, rat and guinea pig cells were grown in 100 mm cell culture plates (Corning Glass Works; Corning, NY, USA) using a sterile technique, maintained in alpha-minimum essential media (α-MEM) supplemented with 10% (v/v) fetal bovine serum (FBS) and G418 (1 mg/mL), and incubated at >80% humidity and 37◦C. For the CALUX analysis, plates of stable cell clones (approximately 80–100% confluent) were trypsinized and resuspended in 20 mL α-MEM. An aliquot (100 μL) of the indicated cell suspension was added into sterile 96-well tissue culture plates (Corning), and the plates were incubated for 24 h prior to ligand exposure, allowing the cells to reach confluence. […] Luciferase activity was measured using an automated microplate luminometer (Anthos Lucy2, Anthos Labtec Instruments, Wals/Salzburg, Austria) in enhanced flash mode with the automatic injection of 50 μL of Promega-stabilized luciferase reagent.

AhR [5] = system: AhR; parameters: method as in PMID 31292477; conditions: fold reduction vs 6-FICZ; cited from earlier work
[6] = mouse H1L7.5c3 cells, 6 h incubation, read-out: EC50, 6 h Mouse

EC50 (AhR [1]) | EC50 (AhR [2]) | EC50 (AhR [3]; [6]) | EC50 (AhR [4]) | EC50 (AhR [3]) | SMILES | reduced activity in comparison to 6-FICZ (AhR [5])
79.9 pM | 577 pM | 482 pM | – | – | O=Cc1c2[nH]c3ccccc3c2cc2[nH]c3ccccc3c12 [Compound 1, 6-Formylindolo[3,2-b]carbazole] | –
9.5 pM | 174 pM | 980 pM | 640 pM | – | c1ccc2c(c1)[nH]c1cc3c(cc12)[nH]c1ccccc13 [Compound 2, indolo[3,2-b]carbazole] | –
58.8 pM | 91.3 pM | 910 pM | 308 pM | – | Cc1c2[nH]c3ccccc3c2cc2[nH]c3ccccc3c12 [Compound 3, 6-methylindolo[3,2-b]carbazole] | –
473 pM | 5770 pM | 922 pM | 4520 pM | – | OCc1c2[nH]c3ccccc3c2cc2[nH]c3ccccc3c12 [Compound 4, 6-Hydroxymethylindolo[3,2-b]carbazole] | more than 10 folds
59.8 pM | 99.3 pM | – | 328 pM | 920 pM | Cc1c2[nH]c3ccccc3c2c(Br)c2[nH]c3ccccc3c12 [Compound 5, 6-Methyl-12-bromoindolo[3,2-b]carbazole] | –

SMILES | EC50 (AhR [1]) | EC50 (AhR [2]) | EC50 (AhR [3]; [6]) | EC50 (AhR [4]) | EC50 (AhR [3]) | reduced activity in comparison to 6-FICZ (AhR [5])
Clc1cc2c(cc1Cl)Oc1cc(Cl)c(Cl)cc1O2 [TCDD, reference compound] | 59 pM | 100 pM | 100 pM | 570 pM | – | –
